Experimental data: US20230303570A1, “KINASE INHIBITORS AND USES THEREOF” (ABM Therapeutics Corporation, priority 2020, published 2023)

Experiments:
Format in all cases: biochemical
HPK1 (MAP4K1) = HPK1 (MAP4K1) (Homo sapiens, UniProt Q92918); assay: HPK1 (MAP4K1) kinase Lantha screen assay
How it was run: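 Recombinant MAP4K1 preincubated 10 min with compound (6-point dilution, duplicates) in 50 mM HEPES pH 7.5, 10 mM MgCl2, then reacted with Fluorescein-PKC substrate and ATP for 90 min at room temperature. Antibody detection solution stopped reaction; after 60 min, TR-FRET read at ex 340 nm, em 520/495 nm.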

c-Kit = c-Kit (Homo sapiens, UniProt P10721); assay: cKit kinase mobility shift assay
Sequence of c-Kit (P10721 26-976): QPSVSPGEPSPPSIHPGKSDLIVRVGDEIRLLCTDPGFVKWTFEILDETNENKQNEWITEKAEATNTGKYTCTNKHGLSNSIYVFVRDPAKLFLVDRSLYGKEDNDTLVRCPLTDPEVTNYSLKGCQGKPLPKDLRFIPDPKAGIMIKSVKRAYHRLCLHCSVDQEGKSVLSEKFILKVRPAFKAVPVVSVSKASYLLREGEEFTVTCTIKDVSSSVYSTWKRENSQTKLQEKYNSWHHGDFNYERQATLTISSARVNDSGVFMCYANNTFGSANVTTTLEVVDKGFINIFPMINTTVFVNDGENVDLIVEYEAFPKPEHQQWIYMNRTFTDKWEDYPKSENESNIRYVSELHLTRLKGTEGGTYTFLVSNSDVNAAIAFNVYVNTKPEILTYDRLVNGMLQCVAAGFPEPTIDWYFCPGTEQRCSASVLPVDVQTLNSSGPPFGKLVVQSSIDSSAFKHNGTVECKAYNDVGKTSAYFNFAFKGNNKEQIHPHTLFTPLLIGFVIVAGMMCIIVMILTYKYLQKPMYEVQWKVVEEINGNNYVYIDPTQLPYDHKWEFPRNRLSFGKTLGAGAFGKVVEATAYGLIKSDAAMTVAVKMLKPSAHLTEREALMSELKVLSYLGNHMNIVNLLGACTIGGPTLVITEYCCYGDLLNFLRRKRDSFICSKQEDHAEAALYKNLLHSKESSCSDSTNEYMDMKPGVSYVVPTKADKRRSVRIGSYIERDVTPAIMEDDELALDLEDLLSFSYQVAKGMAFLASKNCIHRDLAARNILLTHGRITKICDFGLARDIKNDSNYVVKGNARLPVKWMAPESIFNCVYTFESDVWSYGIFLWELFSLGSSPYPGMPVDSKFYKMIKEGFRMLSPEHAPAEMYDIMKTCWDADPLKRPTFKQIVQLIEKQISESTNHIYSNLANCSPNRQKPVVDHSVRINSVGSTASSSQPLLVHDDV
Description: (§1) The effect of the compounds on the activity of cKit, RET and AXL kinases were assessed by Mobility shift assay. • 1. 1× kinase base buffer and stop buffer for testing kinases were prepared • 1-1) 1× Kinase base buffer (50 mM HEPES, pH 7.5, 0.01% Triton X-100) • 1-2) Stop buffer (100 mM HEPES, pH 7.5, 0.015% Brij-35, 0.2% Coating Reagent #3, 50 mM EDTA) • 2. Compound and assay plate preparation: the compound was diluted to 50× of the final desired highest inhibitor concentration in reaction by 100% DMSO. 100 μl of this compound dilution was transferred to a well in a 96-well plate. For example, if the highest desired concentration was 5 μM, then 250 μM of compound DMSO solution was prepared in this step. For all compounds, the compound was serially diluted by transferring 10 μl to 70 μl of 100 DMSO in the next well and so forth for a total of 5 concentrations. 100 μl of 100% DMSO was added to two empty wells for no compound control and no enzyme control in the same 96-well plate. The plate was labeled as source plate. The intermediate plate was prepared by transferring 10 μl of compound from source plate to a new 96-well plate as the intermediate plate, adding 90 μl of 1× kinase buffer to each well of the intermediate plate, mixing the compounds in intermediate plate for 10 min on shaker. 5 μl of each well from the 96-well intermediate plate were transferred to a 384-well plate in duplicates. For example, A1 of the 96-well plate was transferred to A1 and A2 of the 384-well plate. A2 of the 96-well plate was transferred to A3 and A4 of the 384-well plate, and so on. • 4. Kinase reaction: The assay plate already contained 5 μl of compound in 10% DMSO. A 2.5× enzyme solution was prepared by adding kinases (cKit, RET, or AXL) and DTT in 1× kinase base buffer. 2.5× enzyme solution was transferred to the assay plate (by adding 10 μl of 2.5× enzyme solution to each well of the 384-well assay plate). The plate was incubated at room temperature for 10 min. 2.5× peptide solution was prepared by adding FAM-labeled peptide, ATP, MgCl2 in the 1× kinase base buffer. 2.5× peptide solution was added to the assay plate by adding 10 μl of 2.5× peptide solution to each well of the 384-well assay plate. The plate was incubated at 28° C. for the specified period of time. 25 μl of stop buffer was added to stop reaction. Data was collected on Caliper.

RET = RET (Homo sapiens, UniProt P07949); assay: RET kinase mobility shift assay
Sequence of RET (P07949 29-1114, species assumed): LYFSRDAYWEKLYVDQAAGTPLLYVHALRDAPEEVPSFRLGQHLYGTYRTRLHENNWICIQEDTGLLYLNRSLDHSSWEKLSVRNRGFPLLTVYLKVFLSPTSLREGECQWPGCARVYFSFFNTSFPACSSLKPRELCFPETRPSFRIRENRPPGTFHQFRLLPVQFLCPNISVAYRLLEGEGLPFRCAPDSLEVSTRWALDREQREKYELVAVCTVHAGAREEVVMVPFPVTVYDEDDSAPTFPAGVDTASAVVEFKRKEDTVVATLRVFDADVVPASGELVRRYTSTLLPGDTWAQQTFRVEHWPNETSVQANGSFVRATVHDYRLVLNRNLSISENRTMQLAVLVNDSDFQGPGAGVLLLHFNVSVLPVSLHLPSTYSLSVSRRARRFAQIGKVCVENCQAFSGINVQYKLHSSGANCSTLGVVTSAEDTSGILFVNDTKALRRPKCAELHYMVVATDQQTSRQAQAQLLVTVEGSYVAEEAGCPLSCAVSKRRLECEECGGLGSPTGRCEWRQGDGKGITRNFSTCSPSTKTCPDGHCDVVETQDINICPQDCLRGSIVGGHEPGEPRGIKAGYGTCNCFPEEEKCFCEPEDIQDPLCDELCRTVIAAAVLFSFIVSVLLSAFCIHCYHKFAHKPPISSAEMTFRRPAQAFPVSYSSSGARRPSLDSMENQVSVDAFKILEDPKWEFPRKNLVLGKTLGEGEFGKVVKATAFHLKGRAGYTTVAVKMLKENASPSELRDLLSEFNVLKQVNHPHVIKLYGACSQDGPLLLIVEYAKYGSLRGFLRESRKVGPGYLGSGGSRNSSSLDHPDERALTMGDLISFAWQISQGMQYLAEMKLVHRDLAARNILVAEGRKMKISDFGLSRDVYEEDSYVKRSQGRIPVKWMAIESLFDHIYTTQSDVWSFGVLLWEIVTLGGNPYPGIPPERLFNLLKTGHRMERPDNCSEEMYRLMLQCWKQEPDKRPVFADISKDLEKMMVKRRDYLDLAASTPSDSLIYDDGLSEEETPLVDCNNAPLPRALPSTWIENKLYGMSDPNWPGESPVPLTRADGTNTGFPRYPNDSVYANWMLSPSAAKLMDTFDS
Description: as §1

PAK1 = PAK1 (Homo sapiens, UniProt Q13153); assay: In vitro kinase assay, PAK1 (Caliper EZ Reader conversion); parameters: purchased Carna Biosciences
Sequence of PAK1 (Q13153 whole entry): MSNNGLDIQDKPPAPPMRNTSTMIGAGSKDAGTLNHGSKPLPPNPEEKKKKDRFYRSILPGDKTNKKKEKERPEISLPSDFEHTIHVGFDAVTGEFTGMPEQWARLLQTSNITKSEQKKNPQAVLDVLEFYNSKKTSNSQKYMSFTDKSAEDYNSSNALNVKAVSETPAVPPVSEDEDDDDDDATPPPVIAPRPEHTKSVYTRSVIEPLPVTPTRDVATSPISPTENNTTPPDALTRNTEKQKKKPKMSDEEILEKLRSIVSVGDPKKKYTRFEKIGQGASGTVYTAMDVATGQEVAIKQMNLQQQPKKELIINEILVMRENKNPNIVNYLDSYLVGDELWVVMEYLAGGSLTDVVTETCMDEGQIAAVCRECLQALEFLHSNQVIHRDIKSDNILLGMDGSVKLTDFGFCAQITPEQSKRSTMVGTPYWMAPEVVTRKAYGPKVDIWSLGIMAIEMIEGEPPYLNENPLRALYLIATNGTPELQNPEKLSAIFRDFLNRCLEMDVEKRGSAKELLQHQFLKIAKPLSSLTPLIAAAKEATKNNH
How it was run: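 Human PAK1 was preincubated with compound (6 concentrations, 4-fold dilutions) for 10 min at room temperature, then reacted with substrate mix for 30 and 60 min. Substrate conversion was read by Caliper mobility shift. IC50 was fitted by variable-slope log(inhibitor)–response, normalised to FRAX597 and buffer controls.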

Axl = molecular target: T1, Axl (Homo sapiens, UniProt P30530); assay: AXL kinase mobility shift assay
T1 sequence (P30530 26-894): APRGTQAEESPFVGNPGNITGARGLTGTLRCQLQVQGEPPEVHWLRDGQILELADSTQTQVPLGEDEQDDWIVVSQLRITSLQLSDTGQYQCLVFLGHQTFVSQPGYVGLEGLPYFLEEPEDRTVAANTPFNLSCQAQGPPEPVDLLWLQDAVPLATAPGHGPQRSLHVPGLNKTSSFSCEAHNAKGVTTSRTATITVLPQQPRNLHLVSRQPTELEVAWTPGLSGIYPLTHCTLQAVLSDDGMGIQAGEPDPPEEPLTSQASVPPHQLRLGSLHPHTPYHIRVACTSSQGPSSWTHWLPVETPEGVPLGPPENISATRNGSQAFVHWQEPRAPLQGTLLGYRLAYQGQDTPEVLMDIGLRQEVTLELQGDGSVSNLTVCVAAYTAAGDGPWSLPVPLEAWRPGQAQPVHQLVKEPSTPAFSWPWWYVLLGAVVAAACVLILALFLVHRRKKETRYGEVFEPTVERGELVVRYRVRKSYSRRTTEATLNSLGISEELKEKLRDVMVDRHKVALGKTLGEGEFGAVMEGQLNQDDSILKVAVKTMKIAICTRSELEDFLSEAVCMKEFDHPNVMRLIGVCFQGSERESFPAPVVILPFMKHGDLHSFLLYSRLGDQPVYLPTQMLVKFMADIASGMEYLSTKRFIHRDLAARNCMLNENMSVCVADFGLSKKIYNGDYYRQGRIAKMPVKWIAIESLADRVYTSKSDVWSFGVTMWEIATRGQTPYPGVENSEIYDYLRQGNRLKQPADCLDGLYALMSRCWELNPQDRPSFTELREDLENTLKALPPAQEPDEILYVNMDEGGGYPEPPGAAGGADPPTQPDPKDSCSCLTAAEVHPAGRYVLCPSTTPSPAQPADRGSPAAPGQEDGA
Description: as §1

Sequence of HPK1 (MAP4K1) (Q92918 whole entry, species assumed): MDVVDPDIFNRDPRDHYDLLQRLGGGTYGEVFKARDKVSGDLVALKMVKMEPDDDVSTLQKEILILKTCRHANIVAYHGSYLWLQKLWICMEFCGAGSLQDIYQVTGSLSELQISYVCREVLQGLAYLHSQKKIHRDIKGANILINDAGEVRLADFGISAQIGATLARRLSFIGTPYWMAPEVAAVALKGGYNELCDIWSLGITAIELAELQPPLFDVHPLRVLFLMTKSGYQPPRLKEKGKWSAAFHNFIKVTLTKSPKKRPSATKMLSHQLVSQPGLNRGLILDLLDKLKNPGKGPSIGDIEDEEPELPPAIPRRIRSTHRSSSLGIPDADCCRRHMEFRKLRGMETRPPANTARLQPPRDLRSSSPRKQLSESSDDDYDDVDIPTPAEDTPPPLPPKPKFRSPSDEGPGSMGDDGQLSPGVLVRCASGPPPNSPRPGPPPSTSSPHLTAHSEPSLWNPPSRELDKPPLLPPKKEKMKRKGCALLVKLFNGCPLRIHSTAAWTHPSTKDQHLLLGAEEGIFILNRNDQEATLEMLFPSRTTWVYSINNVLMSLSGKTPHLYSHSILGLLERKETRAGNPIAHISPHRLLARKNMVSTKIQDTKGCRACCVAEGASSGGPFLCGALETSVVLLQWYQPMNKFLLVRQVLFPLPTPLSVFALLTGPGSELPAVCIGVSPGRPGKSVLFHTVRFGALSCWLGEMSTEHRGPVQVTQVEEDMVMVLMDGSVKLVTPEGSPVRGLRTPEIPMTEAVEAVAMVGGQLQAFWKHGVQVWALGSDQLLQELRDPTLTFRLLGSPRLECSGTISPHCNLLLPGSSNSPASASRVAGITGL

Structure (SMILES) | IC50 (HPK1 (MAP4K1)) | IC50 (c-Kit) | IC50 (RET) | IC50 (PAK1) | IC50 (Axl)
CNc1ncc2c(n1)N1CCN=C1C(c1cc(NC(=O)c3cc(C(F)(F)F)ccn3)ccc1C)=C2 [Compound 107, N-(4-methyl-3-(2-(methylamino)-8,9-dihydroimidazo[1′,2′:1,6]pyrido[2,3-d]pyrimidin-6-yl)phenyl)-4-(trifluoromethyl)picolinamide] | 100 to 10000 nM | < 100 nM | < 100 nM | > 10000 nM | –
Cc1ccc(NC(=O)c2cc(C(F)(F)F)ccn2)cc1C1=Cc2cnc(NCCF)nc2N2CCN=C12 [Compound 111, N-(3-(2-((2-fluoroethyl)amino)-8,9-dihydroimidazo[1′,2′:1,6]pyrido[2,3-d]pyrimidin-6-yl)-4-methylphenyl)-4-(trifluoromethyl)picolinamide] | 100 to 10000 nM | – | < 100 nM | – | –
CNc1ncc2c(n1)N1CCN=C1C(c1cc(NC(=O)c3cc(C(F)(F)F)ccn3)ccc1C)=C2C [Compound 120, N-(4-methyl-3-(5-methyl-2-(methylamino)-8,9-dihydroimidazo[1′,2′:1,6]pyrido[2,3-d]pyrimidin-6-yl)phenyl)-4-(trifluoromethyl)picolinamide] | 100 to 10000 nM | – | 100 to 10000 nM | – | –
CNc1ncc2c(n1)N1CCN=C1C(c1cc(NC(=O)c3cc(C(F)(F)F)ccn3)ccc1F)=C2C [Compound 121, N-(4-fluoro-3-(5-methyl-2-(methylamino)-8,9-dihydroimidazo[1′,2′:1,6]pyrido[2,3-d]pyrimidin-6-yl)phenyl)-4-(trifluoromethyl)picolinamide] | 100 to 10000 nM | – | 100 to 10000 nM | – | –
CNc1nc(C)c2c(n1)N1CCN=C1C(c1cc(NC(=O)c3cc(C(F)(F)F)ccn3)ccc1C)=C2 [Compound 122, N-(4-methyl-3-(4-methyl-2-(methylamino)-8,9-dihydroimidazo[1′,2′:1,6]pyrido[2,3-d]pyrimidin-6-yl)phenyl)-4-(trifluoromethyl)picolinamide] | > 10000 nM | – | > 10000 nM | – | –
CNc1ncc2c(n1)N1C(=NC[C@H]1C)C(c1cc(NC(=O)c3cc(C(F)(F)F)ccn3)ccc1C)=C2 [Compound 129, (R)—N-(4-methyl-3-(9-methyl-2-(methylamino)-8,9-dihydroimidazo[1′,2′:1,6]pyrido[2,3-d]pyrimidin-6-yl)phenyl)-4-(trifluoromethyl)picolinamide] | 100 to 10000 nM | – | 100 to 10000 nM | – | –
CNc1ncc2c(n1)N1C(=NC[C@@H]1C)C(c1cc(NC(=O)c3cc(C(F)(F)F)ccn3)ccc1C)=C2 [Compound 130, (S)—N-(4-methyl-3-(9-methyl-2-(methylamino)-8,9-dihydroimidazo[1′,2′:1,6]pyrido[2,3-d]pyrimidin-6-yl)phenyl)-4-(trifluoromethyl)picolinamide] | < 100 nM | – | < 100 nM | – | –
CNc1ncc2c(n1)N1CCN=C1C(c1cc(NC(=O)c3cc(C(F)(F)F)ccn3)ccc1F)=C2 [Compound 135, N-(4-fluoro-3-(2-(methylamino)-8,9-dihydroimidazo[1′,2′:1,6]pyrido[2,3-d]pyrimidin-6-yl)phenyl)-4-(trifluoromethyl)picolinamide] | 100 to 10000 nM | – | < 100 nM | – | –
CNc1ncc2c(n1)N1CCN=C1C(c1cc(NC(=O)c3cc(C(F)(F)F)ccn3)ccc1Cl)=C2 [Compound 136, N-(4-chloro-3-(2-(methylamino)-8,9-dihydroimidazo[1′,2′:1,6]pyrido[2,3-d]pyrimidin-6-yl)phenyl)-4-(trifluoromethyl)picolinamide] | 100 to 10000 nM | < 100 nM | < 100 nM | – | –
Cc1ccc(Nc2ncc3c(n2)N2CCN=C2C(c2cc(NC(=O)c4cc(C(F)(F)F)ccn4)ccc2C)=C3)cn1 [Compound 208, N-(4-methyl-3-(2-((6-methylpyridin-3-yl)amino)-8,9-dihydroimidazo[1′,2′:1,6]pyrido[2,3-d]pyrimidin-6-yl)phenyl)-4-(trifluoromethyl)picolinamide] | < 100 nM | – | < 100 nM | – | –
CNc1ncc2c(n1)N1CCN=C1C(c1cc(NS(=O)(=O)c3cccc(C(F)(F)F)c3)c(F)cc1C)=C2 [Compound 285, N-(2-fluoro-4-methyl-5-(2-(methylamino)-8,9-dihydroimidazo[1′,2′:1,6]pyrido[2,3-d]pyrimidin-6-yl)phenyl)-3-(trifluoromethyl)benzenesulfonamide] | – | > 10000 nM | – | – | > 10000 nM
CNc1ncc2c(n1)N1CCN=C1C(c1c(C)ccc(NS(=O)(=O)c3ccccc3Cl)c1F)=C2 [Compound 287, 2-chloro-N-(2-fluoro-4-methyl-3-(2-(methylamino)-8,9-dihydroimidazo[1′,2′:1,6]pyrido[2,3-d]pyrimidin-6-yl)phenyl)benzenesulfonamide] | – | 100 to 10000 nM | – | – | < 100 nM
CNc1ncc2c(n1)N1CCN=C1C(c1cc(NS(=O)(=O)c3ccccc3F)ccc1C)=C2 [Compound 289, 2-fluoro-N-(4-methyl-3-(2-(methylamino)-8,9-dihydroimidazo[1′,2′:1,6]pyrido[2,3-d]pyrimidin-6-yl)phenyl)benzenesulfonamide] | – | > 10000 nM | – | – | > 10000 nM
CNc1ncc2c(n1)N1CCN=C1C(c1cc(NC(=O)Nc3cccc(C(F)(F)F)c3)c(F)cc1C)=C2 [Compound 330, 1-(2-fluoro-4-methyl-5-(2-(methylamino)-8,9-dihydroimidazo[1′,2′:1,6]pyrido[2,3-d]pyrimidin-6-yl)phenyl)-3-(3-(trifluoromethyl)phenyl)urea] | 100 to 10000 nM | < 100 nM | – | – | > 10000 nM
CNc1ncc2c(n1)N1CCN=C1C(c1cc(NC(=O)Nc3cc(C(F)(F)F)ccc3F)c(F)cc1C)=C2 [Compound 333, 1-(2-fluoro-4-methyl-5-(2-(methylamino)-8,9-dihydroimidazo[1′,2′:1,6]pyrido[2,3-d]pyrimidin-6-yl)phenyl)-3-(2-fluoro-5-(trifluoromethyl)phenyl)urea] | – | < 100 nM | – | – | > 10000 nM
CNc1ncc2c(n1)N1CCN=C1C(c1cc(NC(=O)Nc3cc(C(F)(F)F)ccc3Cl)c(F)cc1C)=C2 [Compound 335, 1-(2-chloro-5-(trifluoromethyl)phenyl)-3-(2-fluoro-4-methyl-5-(2-(methylamino)-8,9-dihydroimidazo[1′,2′:1,6]pyrido[2,3-d]pyrimidin-6-yl)phenyl)urea] | – | < 100 nM | – | – | > 10000 nM
CNc1ncc2c(n1)N1CCN=C1C(c1c(C)ccc(NC(=O)Nc3ccccc3Cl)c1F)=C2 [Compound 336, 1-(2-chlorophenyl)-3-(2-fluoro-4-methyl-3-(2-(methylamino)-8,9-dihydroimidazo[1′,2′:1,6]pyrido[2,3-d]pyrimidin-6-yl)phenyl)urea] | – | 100 to 10000 nM | – | – | > 10000 nM
